Results taken from patent publication US4235904A, “4-Aryl-5-piperazinoalkyl-1,3-dioxol-2-ones, and compositions” (Instituto Luso Farmaco d'Italia S.p.A., priority 1978, dated 1980).
Counter-ions that a name gives are not always drawn.

What was measured:
[1] = Antiulcer activity in the rat (immobilization, method of Rossi et al.); format: in vivo; settings: po, rats, os, 30 minutes before 4 hours immobilization, dose which protects 30% of the animals from ulcers, Table 3, read-out: Antiulcer activity DE30 (rats)
Description: (b) Antiulcer activity in the rat The method described by Rossi et al. (Comp.Rend.Soc.Biol., 150, 2124, 1956) was followed: 30 minutes after the oral treatment with the drugs under study, the animals, kept on an empty stomach for 48 hours, were immobilized for a period of 4 hours. At the end of this time, the presence of ulcers is checked after killing the animals by ether. The calculated ED30 represents the dose which protects 30% of the animals from ulcers.

plasmatic triglycerides = test: Hypotriglyceremic activity: determination of plasmatic triglycerides in rats treated orally; format: in vivo; settings: Rattus norvegicus, po, 96 h, os, five treatments in 4 days, dose which reduces by 30% the content of plasmatic triglycerides, Table 2, read-out: Hypotriglyceremic activity DE30 (rats)
Description: It has been evaluated orally in rats treated five times in 4 days (once daily during the first three days, twice daily on the fourth day) with the drugs under study. The animals, kept on an empty stomach, were killed on the fifth day, 18 hours after the last treatment. The following tests were carried out: The technique of […].,44, 267, 1966) is used; it consists in determining, by enzymatic route, the total glycerol made free by hydrolysis of the seric neutral fats. In particular, the "Biochemia Test Combination" (Boehringer Mannheim GMBH) was used. In this case, too, the seric concentration of triglycerides in the treated animals was compared with that in the controls. The calculated ED30 represents the dose which reduces by 30% the content of plasmatic triglycerides.

plasmatic cholesterol = test: Hypocholesterolemic activity: determination of plasmatic cholesterol in rats treated orally; format: in vivo; settings: Rattus norvegicus, po, 96 h, os, five treatments in 4 days, dose which reduces by 30% the content of plasmatic cholesterol, Table 1, read-out: Hypocholesterolemic activity, DE30 (rats)
Description: It has been evaluated orally in rats treated five times in 4 days (once daily during the first three days, twice daily on the fourth day) with the drugs under study. The animals, kept on an empty stomach, were killed on the fifth day, 18 hours after the last treatment. The following tests were carried out: The technique described by J. P. Blomhoff (Clin.Chim.Acta, 43,247, 1973) for the gas-chromatographic determination of total cholesterol was followed. 0,5 ml of the animal serum are hydrolysed at 50° C. for 1 hour with 5 ml of 2% alcoholic KOH. Cholesterol is extracted with 2% petroleum ether at 60°-80° C. and the gas-chromatographic analysis is carried out on the extract with cholesterol acetate as internal standard. The plasmatic cholesterol concentration of the treated animals is evaluated by comparing it with that of the controls. The calculated ED30 represents the dose which reduces by 30% the content of plasmatic cholesterol.

[2] = Acute toxicity, DL50 (mice), ip; settings: for LD50: mouse, in vivo

SMILES: Cl.Cl.O=c1oc(CCN2CCN(c3ccccc3)CC2)c(-c2ccc(F)cc2)o1 [Compound 1, 4-(4-fluorophenyl)-5-[2-(4-phenyl-1-piperazinyl)ethyl]-1,3-dioxol-2-one dihydrochloride]
- ED30 [1]: 10 mg/kg
- ED30 (plasmatic triglycerides): 50 mg/kg
- ED30 (plasmatic cholesterol): 10 mg/kg
- LD50 [2]: 420 mg/kg

SMILES: CN(CCc1ccccc1)CCc1oc(=O)oc1-c1ccc(F)cc1.Cl [Compound 2, 4-(4-fluorophenyl)-5-[2-(N-methyl-N-2-phenylethylamino)ethyl]-1,3-dioxol-2-one hydrochloride]
- ED30 [1]: 15 mg/kg
- LD50 [2]: 175 mg/kg

SMILES: Cl.Cl.O=c1oc(CCN2CCN(c3ccccn3)CC2)c(-c2ccc(F)cc2)o1 [Compound 3, 4-(4-fluorophenyl)-5-[2-(4-(2-pyridyl)-1-piperazinyl)ethyl]-1,3-dioxol-2-one dihydrochloride]
- ED30 (plasmatic cholesterol): 25 mg/kg
- LD50 [2]: 350 mg/kg

SMILES: CN1CCN(CCc2oc(=O)oc2-c2ccc(F)cc2)CC1.Cl.Cl [Compound 4, 4-(4-fluorophenyl)-5-[2-(4-methyl-1-piperazinyl)ethyl]-1,3-dioxol-2-one dihydrochloride]
- ED30 [1]: 20 mg/kg
- LD50 [2]: 300 mg/kg

SMILES: COc1ccccc1N1CCN(CCc2oc(=O)oc2-c2ccc(F)cc2)CC1.Cl.Cl [Compound 5, 4-(4-fluorophenyl)-5-[2-(4-(2-methoxyphenyl)-1-piperazinyl)ethyl]-1,3-dioxol-2-one dihydrochloride]
- ED30 [1]: 30 mg/kg
- LD50 [2]: 350 mg/kg

SMILES: Cl.Cl.O=c1oc(CCN2CCN(c3ccccc3)CC2)c(-c2ccccc2)o1 [Compound 6, 4-phenyl-5-[2-(4-phenyl-1-piperazinyl)ethyl]-1,3-dioxol-2-one dihydrochloride]
- ED30 [1]: 20 mg/kg
- ED30 (plasmatic triglycerides): 30 mg/kg
- ED30 (plasmatic cholesterol): 20 mg/kg
- LD50 [2]: 500 mg/kg

SMILES: Cl.Cl.O=c1oc(CCN2CCN(c3ccccc3)CC2)c(-c2ccc(Cl)cc2)o1 [Compound 7, 4-(4-chlorophenyl)-5-[2-(4-phenyl-1-piperazinyl)ethyl]-1,3-dioxol-2-one dihydrochloride]
- ED30 [1]: 80 mg/kg
- ED30 (plasmatic triglycerides): 30 mg/kg
- ED30 (plasmatic cholesterol): 6 mg/kg
- LD50 [2]: 650 mg/kg

SMILES: O=c1oc(CCN2CCOCC2)c(-c2ccc(F)cc2)o1 [Compound 8, 4-(4-fluorophenyl)-5-[2-(1-morpholinyl)ethyl]-1,3-dioxol-2-one hydrochloride]
- ED30 [1]: 30 mg/kg
- LD50 [2]: > 1000 mg/kg

SMILES: Cc1ccc(-c2oc(=O)oc2CCN2CCN(c3ccccc3)CC2)cc1.Cl [Compound 9, 4-(4-tolyl)-5-[2-(4-phenyl-1-piperazinyl)ethyl]-1,3-dioxol-2-one hydrochloride]
- ED30 [1]: 10 mg/kg
- ED30 (plasmatic triglycerides): 100 mg/kg
- ED30 (plasmatic cholesterol): 15 mg/kg
- Acute toxicity DL50 (mice) ([2]; Table 1): > 1000 mg/kg
- Acute toxicity DL50 (mice) ([2]; Table 2): > 1000 mg/kg
- LD50 [2]: > 1000 mg/kg

SMILES: Cl.O=c1oc(CCN2CCN(c3cc(Cl)cc(Cl)c3)CC2)c(-c2ccc(F)cc2)o1 [Compound 10, 4-(4-fluorophenyl)-5-[2-(4-(3,5-dichlorophenyl)-1-piperazinyl)ethyl]-1,3-dioxol-2-one hydrochloride]
- ED30 [1]: 50 mg/kg
- ED30 (plasmatic triglycerides): 100 mg/kg
- Acute toxicity DL50 (mice) ([2]; Table 2): > 1000 mg/kg
- LD50 [2]: > 1000 mg/kg

SMILES: CC1CN(CCc2oc(=O)oc2-c2ccc(F)cc2)CCN1c1ccc(Cl)cc1.Cl.Cl (stereo not shown) [Compound 11, 4-(4-fluorophenyl)-5-[2-(4-(4-chlorophenyl)-3-methyl-1-piperazinyl)ethyl]-1,3-dioxol-2-one dihydrochloride]
- ED30 [1]: 100 mg/kg
- ED30 (plasmatic triglycerides): 30 mg/kg
- LD50 [2]: 1000 mg/kg

SMILES: Cl.O=c1oc(CCN2CCN(c3cc(Cl)ccc3Cl)CC2)c(-c2ccc(F)cc2)o1 [Compound 12, 4-(4-fluorophenyl)-5-[2-(4-(2,5-dichlorophenyl)-1-piperazinyl)ethyl]-1,3-dioxol-2-one hydrochloride]
- ED30 (plasmatic triglycerides): 30 mg/kg
- Acute toxicity DL50 (mice) ([2]; Table 2): 1000 mg/kg

SMILES: Cl.O=c1oc(CCN2CCN(c3ccc(Cl)c(Cl)c3)CC2)c(-c2ccc(F)cc2)o1 [Compound 13, 4-(4-fluorophenyl)-5-[2-(4-(3,4-dichlorophenyl)-1-piperazinyl)ethyl]-1,3-dioxol-2-one hydrochloride]
- ED30 [1]: 100 mg/kg
- ED30 (plasmatic triglycerides): 25 mg/kg
- Acute toxicity DL50 (mice) ([2]; Table 2): 600 mg/kg
- Acute toxicity DL50 (mice) ([2]; Table 3): 600 mg/kg

SMILES: O=c1oc(CCN2CCN(c3ccccc3)CC2)c(-c2ccc3ccccc3c2)o1 [Compound 14, 4-(2-naphtyl)-5-[2-(4-phenyl-1-piperazinyl)ethyl]-1,3-dioxol-2-one hydrochloride]
- ED30 (plasmatic triglycerides): 100 mg/kg
- ED30 (plasmatic cholesterol): 20 mg/kg
- LD50 [2]: 830 mg/kg

SMILES: COc1ccc(-c2oc(=O)oc2CCN2CCN(c3ccccc3)CC2)cc1.Cl.Cl [Compound 15, 4-(4-methoxyphenyl)-5-[2-(4-phenyl-1-piperazinyl)ethyl]-1,3-dioxol-2-one dihydrochloride]
- ED30 (plasmatic triglycerides): 20 mg/kg
- LD50 [2]: > 1000 mg/kg

SMILES: CSc1ccc(-c2oc(=O)oc2CCN2CCN(c3ccccc3)CC2)cc1.Cl.Cl [Compound 16, 4-(4-methylthiophenyl)-5-[2-(4-phenyl-1-piperazinyl)ethyl]-1,3-dioxol-2-one dihydrochloride]
- ED30 (plasmatic triglycerides): 100 mg/kg
- LD50 [2]: > 1000 mg/kg

SMILES: Cl.O=c1oc(CCN2CCC3(CCCCC3)CC2)c(-c2ccc(F)cc2)o1 [Compound 17, 4-(4-fluorophenyl)-5-[2-(3-azaspiro[5,5]undecan-3-yl)ethyl]-1,3-dioxol-2-one hydrochloride]
- ED30 (plasmatic triglycerides): 30 mg/kg
- LD50 [2]: 190 mg/kg

SMILES: Cl.Cl.O=c1oc(CCN2CCN(C(c3ccccc3)c3ccc(Cl)cc3)CC2)c(-c2ccc(Cl)cc2)o1 (stereo not shown) [Compound 18, 4-(4-chlorophenyl)-5-[2-(4-(4-chlorobenzhydryl)-1-piperazinyl)ethyl]-1,3-dioxol-2-one dihydrochloride]
- ED30 (plasmatic triglycerides): 20 mg/kg
- LD50 [2]: > 1000 mg/kg

SMILES: O=C(O)/C=C\C(=O)O.O=c1oc(CCN2CCN(c3ncccn3)CC2)c(-c2ccc(Cl)cc2)o1 [Compound 19, 4-(4-chlorophenyl)-5-[2-(4-(2-pyrimidinyl)-1-piperazinyl)ethyl]-1,3-dioxol-2-one maleate]
- ED30 (plasmatic cholesterol): 30 mg/kg
- LD50 [2]: 375 mg/kg

SMILES: Cl.O=c1oc(CCCN2CCN(c3ccccc3)CC2)c(-c2ccc(F)cc2)o1 [Compound 20, 4-(4-fluorophenyl)-5-[3-(4-phenyl-1-piperazinyl)propyl]-1,3-dioxol-2-one hydrochloride]
- ED30 (plasmatic triglycerides): 15 mg/kg
- ED30 (plasmatic cholesterol): 30 mg/kg
- Acute toxicity DL50 (mice) ([2]; Table 2): > 500 mg/kg
- LD50 [2]: > 500 mg/kg

SMILES: O=c1oc(CCN2CCN(c3ccc(Cl)cc3)CC2)c(-c2ccc(Cl)cc2)o1 [Compound 21, 4-(4-chlorophenyl)-5-[2-(4-chlorophenyl)-1-piperazinyl)ethyl]-1,3-dioxol-2-one hydrochloride]
- ED30 (plasmatic triglycerides): 100 mg/kg
- LD50 [2]: > 1000 mg/kg

SMILES: O=c1oc(CCN2CCC(c3ccccc3)CC2)c(-c2ccc(Cl)cc2)o1 [Compound 22, 4-(4-chlorophenyl)-5-[2-(4-phenyl)-1-piperidinyl)ethyl]-1,3-dioxol-2-one hydrochloride]
- ED30 (plasmatic triglycerides): 50 mg/kg
- LD50 [2]: 750 mg/kg

SMILES: Cl.O=c1oc(CCN2CCN(C(c3ccccc3)c3ccccc3)CC2)c(-c2ccc(Cl)cc2)o1 [Compound 23, 4-(4-chlorophenyl)-5-[2-(4-benzhydryl-1-piperazinyl)ethyl]-1,3-dioxol-2-one hydrochloride]
- ED30 (plasmatic triglycerides): 100 mg/kg
- LD50 [2]: > 1000 mg/kg
